{"source": "ChEMBL document CHEMBL5728472", "about": "“Triazolopyrimidine, triazolopyridine compounds, and the composition thereof for treating PRC2-mediated diseases” (2021)", "target": "Histone-binding protein RBBP4/Histone-lysine N-methyltransferase EZH2/Polycomb protein EED/Polycomb protein SUZ12 (Homo sapiens, UniProt O75530+Q09028+Q15022+Q15910)", "sequence (Q15910 whole entry)": "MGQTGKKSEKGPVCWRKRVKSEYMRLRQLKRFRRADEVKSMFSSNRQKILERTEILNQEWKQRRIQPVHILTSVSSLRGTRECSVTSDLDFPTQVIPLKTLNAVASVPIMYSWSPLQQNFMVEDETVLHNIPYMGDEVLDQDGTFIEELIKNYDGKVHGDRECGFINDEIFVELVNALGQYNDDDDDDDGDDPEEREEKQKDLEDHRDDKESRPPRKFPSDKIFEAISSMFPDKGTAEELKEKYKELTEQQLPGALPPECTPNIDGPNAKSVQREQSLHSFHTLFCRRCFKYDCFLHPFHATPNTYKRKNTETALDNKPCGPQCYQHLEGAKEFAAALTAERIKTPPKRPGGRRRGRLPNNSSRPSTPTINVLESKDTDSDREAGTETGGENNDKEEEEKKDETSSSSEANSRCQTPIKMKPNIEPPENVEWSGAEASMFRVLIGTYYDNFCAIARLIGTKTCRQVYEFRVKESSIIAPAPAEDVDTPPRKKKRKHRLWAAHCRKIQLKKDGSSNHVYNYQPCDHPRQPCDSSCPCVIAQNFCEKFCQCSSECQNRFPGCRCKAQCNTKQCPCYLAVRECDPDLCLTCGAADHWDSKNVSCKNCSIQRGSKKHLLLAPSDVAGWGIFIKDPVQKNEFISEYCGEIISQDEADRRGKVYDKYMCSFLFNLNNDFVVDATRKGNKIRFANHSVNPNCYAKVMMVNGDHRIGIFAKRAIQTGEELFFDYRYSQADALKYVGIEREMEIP", "sequence (O75530 whole entry)": "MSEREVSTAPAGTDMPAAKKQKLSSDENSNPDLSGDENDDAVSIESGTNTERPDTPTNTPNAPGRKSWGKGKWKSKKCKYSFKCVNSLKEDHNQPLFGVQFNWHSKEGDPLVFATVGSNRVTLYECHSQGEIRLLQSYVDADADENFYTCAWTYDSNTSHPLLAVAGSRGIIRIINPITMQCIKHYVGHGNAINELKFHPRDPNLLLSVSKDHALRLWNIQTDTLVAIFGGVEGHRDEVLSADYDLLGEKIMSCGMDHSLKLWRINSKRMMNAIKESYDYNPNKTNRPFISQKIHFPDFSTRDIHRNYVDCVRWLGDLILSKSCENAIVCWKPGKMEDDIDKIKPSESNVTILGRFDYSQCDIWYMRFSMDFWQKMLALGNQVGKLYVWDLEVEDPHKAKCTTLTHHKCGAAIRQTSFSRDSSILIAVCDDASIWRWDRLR", "sequence (Q15022 whole entry)": "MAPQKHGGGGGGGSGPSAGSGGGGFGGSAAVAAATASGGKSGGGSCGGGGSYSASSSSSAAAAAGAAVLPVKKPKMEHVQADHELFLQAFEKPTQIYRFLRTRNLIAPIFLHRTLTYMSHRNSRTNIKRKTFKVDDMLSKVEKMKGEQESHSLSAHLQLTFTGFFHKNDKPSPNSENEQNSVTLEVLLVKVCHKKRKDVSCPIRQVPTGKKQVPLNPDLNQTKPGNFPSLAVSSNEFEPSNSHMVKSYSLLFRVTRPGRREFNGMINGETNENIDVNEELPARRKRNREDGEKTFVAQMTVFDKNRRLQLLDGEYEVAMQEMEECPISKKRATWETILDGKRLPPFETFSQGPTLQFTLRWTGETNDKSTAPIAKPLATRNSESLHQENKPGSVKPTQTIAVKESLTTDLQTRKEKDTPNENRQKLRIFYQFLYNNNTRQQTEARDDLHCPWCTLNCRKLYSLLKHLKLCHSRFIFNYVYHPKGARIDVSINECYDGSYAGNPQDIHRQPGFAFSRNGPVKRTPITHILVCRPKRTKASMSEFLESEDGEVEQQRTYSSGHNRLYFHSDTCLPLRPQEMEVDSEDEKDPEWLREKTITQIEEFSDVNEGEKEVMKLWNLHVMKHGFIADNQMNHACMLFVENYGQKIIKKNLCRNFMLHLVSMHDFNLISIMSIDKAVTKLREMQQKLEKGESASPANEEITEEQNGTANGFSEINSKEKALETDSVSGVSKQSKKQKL", "sequence (Q09028 whole entry)": "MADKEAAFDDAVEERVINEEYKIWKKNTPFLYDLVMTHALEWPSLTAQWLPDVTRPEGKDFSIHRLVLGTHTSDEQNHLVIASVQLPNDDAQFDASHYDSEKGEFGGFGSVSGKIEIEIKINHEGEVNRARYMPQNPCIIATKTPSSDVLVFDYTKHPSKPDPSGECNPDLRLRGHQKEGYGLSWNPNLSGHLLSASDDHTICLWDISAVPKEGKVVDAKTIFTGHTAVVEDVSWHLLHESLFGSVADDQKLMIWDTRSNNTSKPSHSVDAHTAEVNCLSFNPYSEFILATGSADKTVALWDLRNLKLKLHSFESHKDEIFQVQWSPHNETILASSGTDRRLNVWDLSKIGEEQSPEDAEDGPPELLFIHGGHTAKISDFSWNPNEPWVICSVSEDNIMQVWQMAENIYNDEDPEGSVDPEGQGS", "experiment": "TR-FRET Assay: The TR-FRET method was used to measure the PRC2 enzyme activity. First, the enzyme was mixed with compounds at different concentrations and incubated for 30 min at room temperature. The biotin-labeled histone H3 peptide substrate and the cofactor S-adenosylmethionine (SAM) were added to initiate the enzymatic reaction. After reaction was performed at room temperature for 4 hour, Acceptor and Donor were added and incubated for half an hour. The multifunctional microplate reader EnVision (Perkin Elmer Inc.) was used to detect the fluorescence signal.", "format": "protein-complex assay", "data": [{"smiles": "COC(=O)N1CC=C(c2cnc(NCc3c(F)ccc4c3CCO4)n3cnnc23)CC1", "values": [{"measurement": "IC50", "value": 2.5, "unit": "nM"}]}, {"smiles": "Fc1ccc2c(c1CNc1ncc(C3=CCNCC3)c3nncn13)CCO2", "values": [{"measurement": "IC50", "value": 218, "unit": "nM"}]}]}
